Calls of active or inactive are those of the source. No rule for the calls is given here.
Key:
Experiment in all cases: potency against CXCR6 with APJ panel – cell-based, beta-arrestin, DiscoveRx, uHTS hits, dose response (AID 624129)
[1] = target: Apelin receptor (Homo sapiens) (UniProt P35414); conditions: CXCR6 beta-arrestin (DiscoveRx) antagonist cell assay, APJ
[2] = target: Beta-galactosidase (Escherichia coli) (UniProt Q8VNN2); conditions: CXCR6 beta-arrestin (DiscoveRx) antagonist cell assay, b-galactosidase
[3] = target: C-C chemokine receptor type 6 (Homo sapiens) (UniProt P51684); conditions: CXCR6 beta-arrestin (DiscoveRx) antagonist cell assay
[4] = target: C-X-C chemokine receptor type 6 (Homo sapiens) (UniProt O00574); conditions: CXCR6 beta-arrestin (DiscoveRx) antagonist cell assay; for inhibition: CXCR6, run 1, dose range 2, at 80 µM (top of the series)
[5] = dose range 1, mean IC50 across replicates
[6] = CCR6, dose range 1, mean IC50 across replicates
[7] = CXCR6, dose range 1, mean IC50 across replicates

Chain of C-X-C chemokine receptor type 6 (Homo sapiens) (O00574 whole entry, looked up): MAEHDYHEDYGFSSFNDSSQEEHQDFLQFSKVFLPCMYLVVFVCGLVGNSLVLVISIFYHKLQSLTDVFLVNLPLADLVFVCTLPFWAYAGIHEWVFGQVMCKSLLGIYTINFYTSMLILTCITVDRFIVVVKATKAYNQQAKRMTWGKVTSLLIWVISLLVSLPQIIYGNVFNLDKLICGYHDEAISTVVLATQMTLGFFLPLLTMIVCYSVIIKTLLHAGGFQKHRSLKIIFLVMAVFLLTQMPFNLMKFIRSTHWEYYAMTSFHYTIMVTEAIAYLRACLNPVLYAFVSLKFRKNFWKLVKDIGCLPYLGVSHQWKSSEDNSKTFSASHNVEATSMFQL
Chain of Beta-galactosidase (Escherichia coli) (Q8VNN2 whole entry, looked up): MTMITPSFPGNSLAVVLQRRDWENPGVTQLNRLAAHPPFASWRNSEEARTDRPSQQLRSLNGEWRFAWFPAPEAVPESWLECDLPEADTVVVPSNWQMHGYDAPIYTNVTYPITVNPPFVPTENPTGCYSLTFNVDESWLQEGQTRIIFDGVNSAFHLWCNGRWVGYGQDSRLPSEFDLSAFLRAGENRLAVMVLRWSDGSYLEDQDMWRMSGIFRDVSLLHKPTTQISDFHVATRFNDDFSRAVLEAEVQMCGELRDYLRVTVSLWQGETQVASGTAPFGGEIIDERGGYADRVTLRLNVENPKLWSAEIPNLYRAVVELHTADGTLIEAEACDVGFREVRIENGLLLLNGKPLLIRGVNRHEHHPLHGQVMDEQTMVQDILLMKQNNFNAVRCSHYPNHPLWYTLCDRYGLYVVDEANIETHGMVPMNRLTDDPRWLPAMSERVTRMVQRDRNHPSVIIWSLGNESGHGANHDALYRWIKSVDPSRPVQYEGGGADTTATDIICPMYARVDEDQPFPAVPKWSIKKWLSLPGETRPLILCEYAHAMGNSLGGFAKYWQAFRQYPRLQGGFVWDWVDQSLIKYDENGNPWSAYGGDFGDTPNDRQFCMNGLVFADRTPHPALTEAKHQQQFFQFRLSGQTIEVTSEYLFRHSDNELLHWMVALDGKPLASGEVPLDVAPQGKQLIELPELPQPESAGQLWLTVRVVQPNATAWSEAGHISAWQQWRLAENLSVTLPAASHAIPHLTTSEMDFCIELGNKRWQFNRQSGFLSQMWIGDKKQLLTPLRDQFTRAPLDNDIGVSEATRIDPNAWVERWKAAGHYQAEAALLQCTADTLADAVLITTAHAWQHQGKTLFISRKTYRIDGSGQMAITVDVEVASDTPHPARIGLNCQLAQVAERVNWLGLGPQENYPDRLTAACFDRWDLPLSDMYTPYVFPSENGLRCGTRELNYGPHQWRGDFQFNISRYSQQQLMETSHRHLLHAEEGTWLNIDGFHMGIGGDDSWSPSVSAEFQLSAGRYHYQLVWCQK

Compound | IC50 ([1]; dose range 1) [µM] | IC50 [1, 5] [µM] | IC50 ([1]; run 2, dose range 1) [µM] | IC50 ([1]; run 3, dose range 1) [µM] | IC50 ([2]; dose range 1) | IC50 [2, 5] [µM] | IC50 ([3]; CCR6, dose range 1) [µM] | IC50 [3, 6] [µM] | IC50 ([3]; CCR6, run 2, dose range 1) [µM] | IC50 ([4]; CXCR6, dose range 1) | IC50 [4, 7] [µM] | IC50 ([4]; CXCR6, run 1, dose range 2) [µM] | IC50 ([4]; CXCR6, run 2, dose range 1) [µM] | IC50 ([4]; CXCR6, run 2, dose range 2) [µM] | inhibition [4] [%]
COc1ccc(C(=O)N/N=C(\C)c2ccccn2)cc1OC | 1.82 | 2.39 | 2.48 | 2.86 | > 80 µM (inactive) | > 80 | 2.06 | 2.38 | 2.71 | 2.56 µM | 1.99 | 1.65 | 2.6 | 1.14 | –
O=C(Nc1cccc(C(F)(F)F)c1)Oc1ccc(Cl)c2cccnc12 | 0.347 | 0.41 | > 80 | 0.463 | > 80 µM (inactive) | > 80 | 0.491 | 0.54 | 0.589 | 0.874 µM | 0.702 | – | 0.53 | – | 53.2
CN(C(=O)CSC1=Nc2ccccc2C2=NC(c3ccccc3)C(=O)N12)C1CCCCC1 (stereo not given) | – | > 80 | > 80 | > 80 | > 80 µM (inactive) | > 80 | – | > 80 | > 80 | > 80 µM (inactive) | > 80 | – | > 80 | – | -15.6
O=C1c2ccccc2C(=O)N1OS(=O)(=O)c1ccc(F)cc1 | 20 | 22 | 26.8 | 19.4 | > 80 µM (inactive) | > 80 | 17.7 | 34.6 | 51.5 | > 80 µM (inactive) | > 80 | – | > 80 | – | 69.8
Cc1c(Nc2cc(Cl)c3nonc3c2[N+](=O)[O-])c(=O)n(-c2ccccc2)n1C | 4.55 | 4.26 | 4.09 | 4.16 | > 80 µM (inactive) | > 80 | 3.16 | 3.35 | 3.55 | 3.95 µM | 3.92 | 3.59 | 4.6 | 3.57 | –
Cc1[nH]n(-c2ccccc2)c(=S)c1C=NCCCN=Cc1c(C)[nH]n(-c2ccccc2)c1=S | 2.44 | 3.07 | 3.21 | 3.56 | > 80 µM (inactive) | > 80 | 0.999 | 1.43 | 1.86 | 1.92 µM | 1.55 | 1.07 | 2.07 | 1.14 | –
S=C(NCCCN1CCOCC1)Nc1ccc(Cl)cc1 | 13.7 | 14.5 | 16 | 13.7 | 26.5 µM | 26.5 | 7.62 | 9.33 | 11 | inactive | 12.9 | – | 11 | – | 118
CCOc1ccc2nc(NC(=O)c3ccccn3)sc2c1 | 11.7 | 19.5 | 35 | 11.8 | > 80 µM (inactive) | > 80 | 7.32 | 8.78 | 10.2 | inactive | 13.5 | – | 12.7 | – | 92.1

From PubChem BioAssay AID624129 (Sanford-Burnham Center for Chemical Genomics, 2012)
